Measurements taken from patent publication US20230159509A1 (Amathus Therapeutics, Inc., priority 2020, published 2023).

Biological target: T1, TRAP1 enzyme (Homo sapiens, UniProt Q12931)
T1 construct: 150 nM Trap1 enzyme was incubated with various concentrations of the test compound
T1 sequence (Q12931 60-704): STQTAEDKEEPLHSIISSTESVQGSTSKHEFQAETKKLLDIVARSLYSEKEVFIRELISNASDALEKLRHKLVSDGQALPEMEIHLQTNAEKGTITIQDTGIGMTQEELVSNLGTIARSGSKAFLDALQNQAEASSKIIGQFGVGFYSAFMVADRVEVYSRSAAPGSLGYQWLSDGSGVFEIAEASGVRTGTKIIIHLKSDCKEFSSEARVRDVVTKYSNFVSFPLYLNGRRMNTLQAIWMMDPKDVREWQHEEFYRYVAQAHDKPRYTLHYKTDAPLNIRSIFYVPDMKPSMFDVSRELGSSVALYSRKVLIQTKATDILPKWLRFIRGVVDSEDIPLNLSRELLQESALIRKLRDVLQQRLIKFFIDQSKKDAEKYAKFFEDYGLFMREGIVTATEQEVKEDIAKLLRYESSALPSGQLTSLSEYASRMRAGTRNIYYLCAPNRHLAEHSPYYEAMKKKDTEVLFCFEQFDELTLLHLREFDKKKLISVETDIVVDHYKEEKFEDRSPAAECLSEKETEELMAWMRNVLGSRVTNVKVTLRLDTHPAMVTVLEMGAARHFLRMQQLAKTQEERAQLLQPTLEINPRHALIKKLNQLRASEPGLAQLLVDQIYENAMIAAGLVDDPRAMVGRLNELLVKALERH
Assay: ADP Glo assay of TRAP1 ATPase activity
Type: biochemical
Settings: for EC50: concentration for half maximal activation, read-out: ADP GLO DRC: GeoMean EC50; for Emax: maximal percent activation, read-out: ADP GLO DRC: Mean Emax
Procedure: Potency of test compounds to modulate the ATPase activity of TRAP1 enzyme was evaluated using ADP Glo assay. The assay is based on quantification of the ADP generated from ATP in the ATPase reaction. The assay is performed in two steps; first, after the ATPase reaction an equal volume of ADP-Glo™ Reagent is added to terminate the ATPase reaction and deplete the remaining ATP. Second, the Kinase Detection Reagent is added to simultaneously convert ADP to ATP and allow the newly synthesized ATP to be measured using a luciferase/luciferin reaction.
All the assays were carried out in a 384-well Proxiplate. The buffer used was 25 mM Pipes pH-7.5, 40 mM KCl, 0.05 mM MgCl2, 0.025% BSA, 0.316 mM EGTA, 0.003% Empigen, 0.01% Igepal. 150 nM Trap1 enzyme was incubated with various concentrations of the test compound (0.79 μM-100 μM) at 37° C. for 30 mins (except in blank wells). 20 μM ATP was added to each well to start the reaction. The plate was spun for 1 min at 1200 rpm and then incubated at 37° C. for 60 mins. 5 μl of ADP Glo reagent was added to all the wells and spun the plate for 1 min at 1200 rpm and kept it on a shaker at ambient temperature for 60 mins. 10 μl of kinase detection mix was added to all the wells and the plate was read for Luminescence at 495 nm. The amount of ADP released was estimated from ATP/ADP standard curve generated at the same experimental conditions. Emax (Maximal percent activation) and EC50 (concentration for half maximal activation) were estimated by fitting the dose response data to a sigmoidal curve fitting equation using Graphpad Prism software V. 8.

EC50 [µM] | Emax [%] | SMILES
10 to 20 | 160 to 199 | COc1ncc(NC(=O)c2ncccc2C(=O)c2ccccc2)cc1S(=O)(=O)Nc1ccc(Cl)cc1 [compound 1195, 3-benzoyl-N-(5-(N-(4-chlorophenyl)sulfamoyl)-6-methoxypyridin-3-yl)picolinamide]
20 to 100 | 119 to 159 | Cc1ncoc1C(=O)Nc1cc(S(=O)(=O)Nc2ccc(Cl)cc2)cc[n+]1[O-] [compound 1294, 4-(N-(4-chlorophenyl)sulfamoyl)-2-(4-methyloxazole-5-carboxamido)pyridine 1-oxide]
< 10 | 200 to 300 | COc1ncc(NC(=O)c2coc(-c3ccccc3)n2)cc1S(=O)(=O)Nc1c(C)cccc1C [compound 1312, N-(5-(N-(2,6-dimethylphenyl)sulfamoyl)-6-methoxypyridin-3-yl)-2-phenyloxazole-4-carboxamide]
10 to 20 | 119 to 159 | COc1ncc(NC(=O)c2csc(-c3ccncc3)n2)cc1S(=O)(=O)Nc1c(C)cccc1C [compound 1351, N-(5-(N-(2,6-dimethylphenyl)sulfamoyl)-6-methoxypyridin-3-yl)-2-(pyridin-4-yl)thiazole-4-carboxamide]
20 to 100 | 200 to 300 | COc1ncc(NC(=O)c2ncc(-c3ccccc3)o2)cc1S(=O)(=O)Nc1c(C#N)cccc1C(F)(F)F [compound 1358, N-(5-(N-(2-cyano-6-(trifluoromethyl)phenyl)sulfamoyl)-6-methoxypyridin-3-yl)-5-phenyloxazole-2-carboxamide]
20 to 100 | > 300 | COc1ncc(NC(=O)c2ccnc3c2OCCC3)cc1S(=O)(=O)Nc1c(C)cccc1C [compound 1364, N-(5-(N-(2,6-dimethylphenyl)sulfamoyl)-6-methoxypyridin-3-yl)-3,4-dihydro-2H-pyrano[3,2-b]pyridine-8-carboxamide]
20 to 100 | > 300 | COc1ncc(NC(=O)c2cccc3ncoc23)cc1S(=O)(=O)Nc1c(C)cccc1C [compound 1367, N-(5-(N-(2,6-dimethylphenyl)sulfamoyl)-6-methoxypyridin-3-yl)benzo[d]oxazole-7-carboxamide]
20 to 100 | > 300 | COc1ncc(NC(=O)c2csc(-c3ccccc3)n2)cc1S(=O)(=O)Nc1ncc(Cl)cn1 [compound 1383, N-(5-(N-(5-chloropyrimidin-2-yl)sulfamoyl)-6-methoxypyridin-3-yl)-2-phenylthiazole-4-carboxamide]

Second part, the compound before the results:

SMILES | EC50 [µM] | Emax [%]
COc1ncc(NC(=O)c2noc3c2CCCC3)cc1S(=O)(=O)Nc1ccc(Cl)cc1 [compound 1194, N-(5-(N-(4-chlorophenyl)sulfamoyl)-6-methoxypyridin-3-yl)-4,5,6,7-tetrahydrobenzo[d]isoxazole-3-carboxamide] | 20 to 100 | 119 to 159
COc1ncc(NC(=O)c2ccccc2C(=O)c2ccccc2)cc1S(=O)(=O)Nc1ccc(Cl)cc1 [compound 1197, 2-benzoyl-N-(5-(N-(4-chlorophenyl)sulfamoyl)-6-methoxypyridin-3-yl)benzamide] | < 10 | 160 to 199
COc1ncc(NC(=O)c2ccc3nccnc3c2)cc1S(=O)(=O)Nc1ccc(Cl)cc1 [compound 1198, N-(5-(N-(4-chlorophenyl)sulfamoyl)-6-methoxypyridin-3-yl) quinoxaline-6-carboxamide] | 10 to 20 | 160 to 199
COc1ncc(NC(=O)c2cc(-n3ccnc3)ccn2)cc1S(=O)(=O)Nc1ccc(Cl)cc1 [compound 1203, N-(5-(N-(4-chlorophenyl)sulfamoyl)-6-methoxypyridin-3-yl)-4-(1H-imidazol-1-yl)picolinamide] | 10 to 20 | 160 to 199
COc1ncc(NC(=O)c2cccc(-n3cncn3)c2)cc1S(=O)(=O)Nc1ccc(Cl)cc1 [compound 1204, N-(5-(N-(4-chlorophenyl)sulfamoyl)-6-methoxypyridin-3-yl)-3-(1H-1,2,4-triazol-1-yl)benzamide] | 10 to 20 | 160 to 199
COc1ncc(NC(=O)C(C)n2cc(Br)cn2)cc1S(=O)(=O)Nc1ccc(Cl)cc1 (stereo not drawn) [compound 1213, (4-bromo-1H-pyrazol-1-yl)-N-(5-(N-(4-chlorophenyl)sulfamoyl)-6-methoxypyridin-3-yl)propanamide] | 20 to 100 | 119 to 159
COc1ncc(NC(=O)c2ncc(-c3ccccc3)o2)cc1S(=O)(=O)Nc1c(Cl)cccc1C(F)(F)F [compound 1303, N-(5-(N-(2-chloro-6-(trifluoromethyl)phenyl)sulfamoyl)-6-methoxypyridin-3-yl)-5-phenyloxazole-2-carboxamide] | 10 to 20 | 160 to 199
O=C(Nc1cc(S(=O)(=O)Nc2ccc(Cl)cc2)cc[n+]1[O-])c1cnc(-c2ccccc2)[nH]1 [compound 1321, 4-(N-(4-chlorophenyl)sulfamoyl)-2-(2-phenyl-1H-imidazole-5-carboxamido) pyridine 1-oxide] | 10 to 20 | 160 to 199
COc1ncc(NC(=O)c2csc(-c3ccccc3)n2)cc1S(=O)(=O)Nc1ccccc1C [compound 1350, N-(6-methoxy-5-(N-(o-tolyl)sulfamoyl)pyridin-3-yl)-2-phenylthiazole-4-carboxamide] | < 10 | 119 to 159
COc1ncc(NC(=O)c2cn(C)c3ncccc23)cc1S(=O)(=O)Nc1ccc(Cl)cc1 [compound 1359, N-(5-(N-(4-chlorophenyl)sulfamoyl)-6-methoxypyridin-3-yl)-1-methyl-1H-pyrrolo [2,3-b]pyridine-3-carboxamide] | 20 to 100 | 119 to 159
O=C(Nc1cc(S(=O)(=O)Nc2ccc(Cl)cc2)ccn1)c1cnc(-c2ccccc2)[nH]1 [compound 1361, N-(4-(N-(4-chlorophenyl)sulfamoyl)pyridin-2-yl)-2-phenyl-1H-imidazole-5-carboxamide] | 10 to 20 | 200 to 300
COc1ncc(NC(=O)c2cccc3ocnc23)cc1S(=O)(=O)Nc1c(C)cccc1C [compound 1366, N-(5-(N-(2,6-dimethylphenyl)sulfamoyl)-6-methoxypyridin-3-yl)benzo[d]oxazole-4-carboxamide] | < 10 | 200 to 300
COc1ncc(NC(=O)c2ncc(-c3ccccc3)o2)cc1S(=O)(=O)Nc1c(F)cccc1C(F)(F)F [compound 1377, N-(5-(N-(2-fluoro-6-(trifluoromethyl)phenyl)sulfamoyl)-6-methoxypyridin-3-yl)-5-phenyloxazole-2-carboxamide] | 20 to 100 | 160 to 199
COc1ncc(NC(=O)c2cccc3c2OC(C)(C)C3)cc1S(=O)(=O)Nc1c(C)cccc1C [compound 1379, N-(5-(N-(2,6-dimethylphenyl)sulfamoyl)-6-methoxypyridin-3-yl)-2,2-dimethyl-2,3-dihydrobenzofuran-7-carboxamide] | 20 to 100 | 200 to 300
COc1ncc(NC(=O)c2cc3c(C)nn(C)c3s2)cc1S(=O)(=O)Nc1c(C)cccc1C [compound 1380, N-(5-(N-(2,6-dimethylphenyl)sulfamoyl)-6-methoxypyridin-3-yl)-1,3-dimethyl-1H-thieno[2,3-c]pyrazole-5-carboxamide] | < 10 | > 300
COc1ncc(NC(=O)c2csc(-c3ccccc3)n2)cc1S(=O)(=O)Nc1ccc(Cl)nc1C [compound 1382, N-(5-(N-(6-chloro-2-methylpyridin-3-yl)sulfamoyl)-6-methoxypyridin-3-yl)-2-phenylthiazole-4-carboxamide] | 20 to 100 | 200 to 300
